Four molecules from patent US20240317721A1, “PYRAZOLYL DERIVATIVES AS INHIBITORS OF THE KRAS MUTANT PROTEIN” (NOVARTIS AG, priority 2021, published 2024) can be followed below.

In assay [1] the target is KRasG12C mutant (Homo sapiens (Human), UniProt P01116, G12C). Description: covalent competition assay. Format: binding. As to conditions: comparison of the two atropisomers; a(R) vs a(S) configuration.
Assay [2] has as its target KRasG12C (M1-K169, biotinylated on the N-terminus) (Homo sapiens (Human), UniProt P01116, G12C). Description: Covalent competition assay: scintillation proximity assay (SPA) quantifying covalent modification of KRASG12C. The conditions noted are these: competition with radiolabeled covalent probe (Compound B/Compound A), 2 hours incubation, 10 nM KRasG12C. It counts as binding. In short, it runs like this: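 Scintillation proximity readout after streptavidin bead capture (30 min) of biotinylated KRasG12C(M1-K169):GDP, 10 nM final, which was covalently labelled over 2 h by 25 nM radio-probe plus 475 nM cold probe unless blocked by compound.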
On the technique in general: In a scintillation proximity assay essentially only radioactivity close to the scintillant gives light.

Assay [3] has as its target KRasG12C (Homo sapiens (Human), UniProt P01116, G12C). Description: MS-based assay assessing % modification of KRasG12C over compound concentrations and time points. Format: biochemical. The conditions noted are these: non-labeled ligand, internally determined, read-out: (kinact/KI)probe, second order rate constant for modification of KRasG12C.

For the molecule `C=CC(=O)N1CC2(CC(n3nc(N4CCN(C(C)=O)C[C@]4(C)CC)c(-c4c(Cl)c(C)cc5[nH]ncc45)c3C)C2)C1` (single isomer, unassigned) [Example 121b], the “relative activity of the atropisomers of a pair in the covalent competition assay” value in assay [1] was “most active atropisomer”. For the same molecule, the half-maximal inhibitory concentration (IC50) in assay [2] came to 8 nM. For `C=CC(=O)N1CC2(CC(n3nc(N4CCN(C(C)=O)C[C@]4(C)CC)c(-c4c(Cl)c(C)cc5[nH]ncc45)c3C)C2)C1` (single isomer, unassigned) [Example 121a], in that order: “less active atropisomer” and over 5000 nM. For `C=CC(=O)Nc1ccc(-n2c(C)c(-c3c(C)ccc4[nH]ncc34)c3cccnc32)c(F)c1` [Compound A, N-(3-fluoro-4-(2-methyl-3-(5-methyl-1H-indazol-4-yl)-1H-pyrrolo[2,3-b]pyridin-1-yl)phenyl)acrylamide], in assay [3], the kinact/KI was about 5000 M⁻¹ s⁻¹. In the case of `C=CC(=O)N1CC2(CC(n3nc(N4CC[C@@H](CN5CCN6C(=O)N(C)CC6C5)CC4(C)C)c(-c4c(Cl)c(Cl)cc5[nH]ncc45)c3C)C2)C1` (single isomer, unassigned) [Example 264b], the IC50 in assay [2] came to 33 nM.

What is called IC50 is the midpoint of a concentration-inhibition curve.
